Assay results from DBAASP.
Converted amounts (≈) assume the structure as drawn.

Experiments:
Assay in all cases: ≥ marks a high value that may be exact or a test limit, other limits are often not marked, values filed in µg/mL are converted to µM
[1] = test system: Bacillus subtilis 168
[2] = test system: Staphylococcus aureus
[3] = test system: Candida tropicalis ATCC 750
[4] = test system: Candida krusei ATCC 6258
[5] = test system: Cryptococcus neoformans ATCC 208821
[6] = test system: Escherichia coli ESBL
[7] = test system: Escherichia coli BL21
[8] = test system: Candida parapsilosis ATCC 22019
[9] = test system: Candida albicans SC5314
[10] = test system: Penicillium expansum EPS 26
[11] = test system: Rhizopus stolonifer CECT 2344
[12] = test system: Fusarium oxysporum f. sp. lycopersici ATCC 201829
[13] = test system: Aspergillus niger CECT 2694
[14] = test system: Candida albicans TIMM 1768
[15] = test system: Saccharomyces cerevisiae KCTC 7296
[16] = test system: Salmonella typhimurium KCTC 1926
[17] = test system: Staphylococcus epidermidis KCTC 3096
[18] = test system: Pseudomonas aeruginosa KCTC 1637
[19] = test system: Bacillus subtilis KCTC 1918
[20] = test system: Trichosporon beigelii KCTC 7707
[21] = test system: Alternaria alternata
[22] = test system: Pseudomonas corrugata DSM 7228
[23] = test system: Pectobacterium carotovorum subsp. carotovorum DSM 30168
[24] = test system: Pseudomonas syringae pv. tomato DC3000
[25] = test system: Botrytis cinerea
[26] = test system: Cladosporium herbarum
[27] = test system: Xanthomonas vesicatoria DSM 50861
[28] = test system: Clavibacter michiganensis subsp. michiganensis DSM 46294
[29] = test system: Pseudomonas syringae pv. syringae DSM 10604
[30] = test system: Proteus vulgaris
[31] = test system: Bacillus megaterium KCTC 1096
[32] = test system: Escherichia coli KCTC 1682
[33] = test system: Staphylococcus aureus KCTC 1621
[34] = test system: Staphylococcus aureus 90857
[35] = test system: Escherichia coli ATCC 27325
[36] = test system: Pseudomonas aeruginosa ATCC 27853
[37] = test system: Cryptococcus neoformans ATCC 34881
[38] = test system: Saccharomyces cerevisiae ATCC 44774
[39] = test system: Micrococcus luteus ATCC 10240
[40] = test system: Staphylococcus aureus ATCC 15752
[41] = test system: Enterococcus faecalis ATCC 29212
[42] = test system: Candida albicans ATCC 10231
[43] = test system: Bacillus subtilis KCTC 3038
[44] = test system: Salmonella typhimurium KCTC 2370

Question: `CC[C@H](C)[C@H](N)C(=O)N[C@H](C(=O)N[C@@H](CCCCN)C(=O)N[C@@H](CCCCN)C(=O)N[C@H](C(=O)N[C@H](C(=O)N[C@@H](CCCCN)C(=O)N[C@@H](CCCCN)C(=O)N[C@H](C(=O)N[C@H](C(=O)N[C@@H](CCCCN)C(=O)N[C@@H](CCCCN)C(N)=O)[C@@H](C)CC)[C@@H](C)CC)[C@@H](C)CC)[C@@H](C)CC)[C@@H](C)CC` [IIKKIIKKIIKK] was tested. Which MIC [1] did it give?
Answer: 5 µM (≈ 7.33 µg/mL)

Question: And the MIC [2]?
Answer: 30 µM (≈ 44 µg/mL)

Question: And the MIC [3]?
Answer: ≥ 100 µM

Question: What about the MIC [4] of the same compound?
Answer: ≥ 100 µM

Question: What about the MIC [5] of the same compound?
Answer: 25 µM (≈ 36.6 µg/mL)

Question: And the MIC [6]?
Answer: 20 µM (≈ 29.3 µg/mL)

Question: And the MIC [7]?
Answer: 30 µM (≈ 44 µg/mL)

Question: What about the MIC [8] of the same compound?
Answer: ≥ 1600 µM

Question: And the MIC [9]?
Answer: ≥ 800 µM

Question: `CC[C@H](C)[C@H](NC(=O)[C@H](CCCCN)NC(=O)[C@H](CCCCN)NC(=O)[C@H](Cc1ccccc1)NC(=O)[C@H](CC(C)C)NC(=O)[C@H](CCCCN)NC(=O)[C@@H](N)CCCCN)C(=O)N[C@@H](CC(C)C)C(=O)N[C@@H](CCCCN)C(=O)N[C@@H](CCCCN)C(=O)N[C@@H](CC(C)C)C(N)=O` [KKLFKKILKKL] was tested. Which MIC [10] did it give?
Answer: ≥ 100 µM

Question: What about the MIC [11] of the same compound?
Answer: ≥ 70.7 µM

Question: And the MIC [12]?
Answer: 0.849 µM (≈ 1.18 µg/mL)

Question: What about the MIC [13] of the same compound?
Answer: 22.4 µM (≈ 31 µg/mL)

Question: What does the source list for `CC(C)C[C@H](NC(=O)[C@H](CCCCN)NC(=O)[C@H](CC(C)C)NC(=O)[C@H](CCCCN)NC(=O)[C@H](CC(C)C)NC(=O)[C@@H]1CCCN1C(=O)[C@H](CCCCN)NC(=O)[C@H](CCCCN)NC(=O)[C@H](CC(C)C)NC(=O)[C@H](CC(C)C)NC(=O)[C@@H](N)CCCCN)C(N)=O` [KLLKKPLKLKL]?
Answer: MIC [14]: 25 µM (≈ 33 µg/mL); MIC [15]: 25 µM (≈ 33 µg/mL); MIC [16]: 0.8 µM (≈ 1.06 µg/mL); MIC [17]: 6.3 µM (≈ 8.32 µg/mL); MIC [18]: 6.3 µM (≈ 8.32 µg/mL); MIC [19]: 12.5 µM (≈ 16.5 µg/mL); MIC [20]: 6.3 µM (≈ 8.32 µg/mL)

Question: What does the source list for `CC[C@H](C)[C@H](NC(=O)[C@@H](NC(=O)CNC(=O)[C@H](C)NC(=O)[C@H](CCSC)NC(=O)[C@@H](NC(=O)CNC(=O)[C@H](Cc1ccccc1)NC(=O)[C@@H](NC(=O)[C@H](CC(C)C)NC(=O)[C@@H](NC(=O)[C@H](CC(C)C)NC(=O)[C@H](CCCCN)NC(=O)[C@H](CCCN=C(N)N)NC(=O)[C@@H](N)CCCCN)[C@@H](C)O)C(C)C)C(C)C)C(C)C)C(=O)NCC(=O)N[C@H](C(=O)N[C@@H](CCCCN)C(=O)N[C@@H](CCCCN)C(=O)N[C@@H](CCCN=C(N)N)C(N)=O)[C@@H](C)O` [KRKLTLVFGVMAGVIGTKKR]?
Answer: MIC [21]: ≥ 45.4 µM; MIC [22]: 18.2 µM (≈ 40 µg/mL); MIC [23]: 18.2 µM (≈ 40 µg/mL); MIC [24]: 18.2 µM (≈ 40 µg/mL); MIC [25]: ≥ 45.4 µM; MIC [26]: ≥ 45.4 µM; MIC [27]: 18.2 µM (≈ 40 µg/mL); MIC [28]: 9.08 µM (≈ 20 µg/mL); MIC [29]: 18.2 µM (≈ 40 µg/mL)

Question: How did the MIC [30] turn out when `CC[C@H](C)[C@H](NC(=O)[C@H](CCCCN)NC(=O)[C@H](CCCCN)NC(=O)[C@H](Cc1ccccc1)NC(=O)[C@H](CC(C)C)NC(=O)[C@H](CCCCN)NC(=O)[C@H](Cc1c[nH]c2ccccc12)NC(=O)[C@@H](N)CCCCN)C(=O)N1CCC[C@H]1C(=O)N[C@@H](Cc1ccccc1)C(=O)N[C@@H](CC(C)C)C(=O)N[C@@H](Cc1cnc[nH]1)C(=O)N[C@@H](CC(C)C)C(=O)N[C@@H](C)C(=O)N[C@@H](CCCCN)C(=O)N[C@@H](CCCCN)C(=O)N[C@@H](Cc1ccccc1)C(N)=O` [KWKLFKKIPFLHLAKKF] was run?
Answer: 1.56 µM (≈ 3.39 µg/mL)

Question: And the MIC [31]?
Answer: 1.56 µM (≈ 3.39 µg/mL)

Question: What about the MIC [32] of the same compound?
Answer: 6.25 µM (≈ 13.6 µg/mL)

Question: And the MIC [33]?
Answer: 3.12 µM (≈ 6.79 µg/mL)

Question: And the MIC [18]?
Answer: 6.25 µM (≈ 13.6 µg/mL)

Question: What about the MIC [19] of the same compound?
Answer: 0.78 µM (≈ 1.69 µg/mL)

Question: For `CC(C)C[C@H](NC(=O)[C@H](CC(C)C)NC(=O)[C@H](CCCCN)NC(=O)[C@H](CCCCN)NC(=O)[C@H](CC(C)C)NC(=O)[C@H](CC(C)C)NC(=O)[C@H](CCCCN)NC(=O)[C@H](CCCCN)NC(=O)[C@H](CC(C)C)NC(=O)[C@H](C)NC(=O)[C@H](CCCCN)NC(=O)[C@H](CC(C)C)NC(=O)[C@@H](N)CC(C)C)C(N)=O` [LLKALKKLLKKLL], which MIC [21] is on record?
Answer: ≥ 65.7 µM

Question: And the MIC [22]?
Answer: 26.3 µM (≈ 40 µg/mL)

Question: What about the MIC [23] of the same compound?
Answer: 26.3 µM (≈ 40 µg/mL)

Question: And the MIC [24]?
Answer: 6.57 µM (≈ 9.99 µg/mL)

Question: What about the MIC [25] of the same compound?
Answer: ≥ 65.7 µM

Question: What about the MIC [26] of the same compound?
Answer: 26.3 µM (≈ 40 µg/mL)

Question: What about the MIC [34] of the same compound?
Answer: 1.5 µM (≈ 2.28 µg/mL)

Question: What about the MIC [27] of the same compound?
Answer: 3.29 µM (≈ 5 µg/mL)

Question: And the MIC [28]?
Answer: 6.57 µM (≈ 9.99 µg/mL)

Question: And the MIC [29]?
Answer: 6.57 µM (≈ 9.99 µg/mL)

Question: For `CC(C)[C@H](NC(=O)CNC(=O)[C@H](CCC(N)=O)NC(=O)[C@@H](NC(=O)[C@@H](NC(=O)[C@@H]1CCCN1C(=O)[C@H](CCCN=C(N)N)NC(=O)[C@@H](NC(=O)CNC(=O)[C@@H](N)CCCN=C(N)N)C(C)C)C(C)C)C(C)C)C(=O)N[C@@H](CCCCN)C(=O)N[C@@H](CCC(=O)O)C(=O)N[C@@H](CCCCN)C(=O)N[C@H](C(=O)N[C@@H](CCCN=C(N)N)C(=O)O)C(C)C` [RGVRPVVQGVKEKVR], which MIC [35] is on record?
Answer: ≥ 37.5 µM

Question: What about the MIC [36] of the same compound?
Answer: > 37.5 µM

Question: What about the MIC [37] of the same compound?
Answer: ≥ 37.5 µM

Question: What about the MIC [38] of the same compound?
Answer: ≥ 37.5 µM

Question: And the MIC [39]?
Answer: ≥ 37.5 µM

Question: And the MIC [40]?
Answer: ≥ 37.5 µM

Question: And the MIC [41]?
Answer: > 37.5 µM

Question: And the MIC [42]?
Answer: > 37.5 µM

Question: What about the MIC [43] of the same compound?
Answer: ≥ 37.5 µM

Question: And the MIC [44]?
Answer: ≥ 37.5 µM

Question: How did the MIC [22] turn out when `CC(C)C[C@H](NC(=O)[C@H](CC(C)C)NC(=O)[C@H](CCCCN)NC(=O)[C@@H](NC(=O)[C@H](CCCN=C(N)N)NC(=O)[C@H](CCCCN)NC(=O)[C@H](CCCCN)NC(=O)[C@@H](N)CCCN=C(N)N)C(C)C)C(=O)N[C@@H](CCCCN)C(=O)N[C@@H](CCCN=C(N)N)C(=O)N[C@@H](CC(C)C)C(=O)N[C@H](C(N)=O)C(C)C` [RKKRVKLLKRLV] was run?
Answer: 0.325 µM (≈ 0.5 µg/mL)

Question: And the MIC [23]?
Answer: 6.51 µM (≈ 9.99 µg/mL)

Question: What about the MIC [24] of the same compound?
Answer: 3.25 µM (≈ 5 µg/mL)

Question: And the MIC [34]?
Answer: ≥ 62.5 µM

Question: What about the MIC [27] of the same compound?
Answer: 3.25 µM (≈ 5 µg/mL)

Question: And the MIC [28]?
Answer: 6.51 µM (≈ 9.99 µg/mL)

Question: What about the MIC [29] of the same compound?
Answer: 1.63 µM (≈ 2.5 µg/mL)
